This note sets out measurements from ChEMBL document CHEMBL3046581, “Synthesis and cytotoxic activity of diaryl urea derivatives with a 4-methylpiperazinylcarbonyl moiety” (Med Chem Res, 2013).

The test system of test [1] is A549. The test can be described thus: Cytotoxicity against Homo sapiens (human) A549 cells assessed as growth inhibition at 100 uM after 48 hr by MTT assay. It counts as functional. Conditions: A549, 48 h, read-out: GI. Background: Tetrazolium assays rely on reduction of a dye to a coloured formazan, in cell work by metabolically active cells.
The subject of test [2] is PC-3. The test can be described thus: Cytotoxicity against Homo sapiens (human) PC3 cells assessed as growth inhibition at 100 uM after 48 hr by MTT assay. It is filed as functional. Conditions: PC-3, 48 h, read-out: GI.
Test [3] concerns A549. The test can be described thus: Cytotoxicity against Homo sapiens (human) A549 cells assessed as growth inhibition after 48 hr by MTT assay. As to conditions: for IC50: Homo sapiens, A549, 48 h. It counts as functional, cell-based.
Test [4] has as its system PC-3. In words: Cytotoxicity against Homo sapiens (human) PC3 cells assessed as growth inhibition after 48 hr by MTT assay. It is filed as functional.

Molecules are shown by their SMILES.

With `CN1CCN(C(=O)c2ccc(NC(=O)Nc3ccc(Cl)c(C(F)(F)F)c3)cc2)CC1`, the values for the inhibition of growth at 100 µM with A549 [1] and in the test with PC-3 [2] were 22.6% and 25.5%, respectively.
With `C#Cc1cccc(NC(=O)Nc2ccc(C(=O)N3CCN(C)CC3)cc2)c1`, the figures for the inhibition of growth at 100 µM in the test with A549 [1] and in the test on PC-3 [2] were 45.4% and 49.3%, respectively.
In the case of `CN1CCN(C(=O)c2ccc(NC(=O)Nc3ccc(F)c(Cl)c3)cc2)CC1`, the inhibition of growth at 100 µM in the test with A549 [1] was found to be 28.4%; in the test with PC-3 [2], 29.9%.
With `CNC(=O)c1cc(Oc2ccc(NC(=O)Nc3ccc(Cl)c(C(F)(F)F)c3)cc2)ccn1` [SORAFENIB], the “growth inhibition (GI)” value with A549 [3] is “Dose-dependent effect”; with A549 [3] (record 2), 94.8%; in the test with PC-3 [4], 91.4%. Further, the IC50 (usually the concentration that inhibits the measured activity by half) with A549 [3] worked out at 6.08 µM.
On to `CN1CCN(C(=O)c2ccc(NC(=O)Nc3ccc(Cl)c(Cl)c3)cc2)CC1`, for which the inhibition of growth at 100 µM turned out to be 36.5% in the test with A549 [1] and 28% in the test on PC-3 [2].
The corresponding values for `Cc1cc(NC(=O)Nc2ccc(C(=O)N3CCN(C)CC3)cc2)ccc1Cl` are 27.5% and 35.1%.
For `COc1cc(NC(=O)Nc2ccc(C(=O)N3CCN(C)CC3)cc2)cc(OC)c1` the same measures were 28.6% and 40%.
For the molecule `CC(=O)Nc1nc2ccc(NC(=O)Nc3ccc(C(=O)N4CCN(C)CC4)cc3)cc2s1`, the inhibition of growth at 100 µM in the test with A549 [1] is 93.5%. Besides, in the test with A549 [3], the “growth inhibition (GI)” value is “Dose-dependent effect” and the IC50 came out at 0.57 µM.
For the molecule `CN1CCN(C(=O)c2ccc(NC(=O)Nc3cccc(C(F)(F)F)c3)cc2)CC1`, the inhibition of growth at 100 µM in the test with A549 [1] turned out to be 21.2%; in the test on PC-3 [2], 37.1%.
For the molecule `CN1CCN(C(=O)c2ccc(NC(=O)Nc3cccc(C(=O)N4CCCCC4)c3)cc2)CC1`, the values for the inhibition of growth at 100 µM in the test with A549 [1] and with PC-3 [2] were 19.7% and 31.1%, respectively.
The corresponding values for `CN1CCN(C(=O)c2ccc(NC(=O)Nc3ccc(F)c(F)c3)cc2)CC1` are 43.1% and 27.6%.
Consider `CN1CCN(C(=O)c2ccc(NC(=O)Nc3ccc(OCc4cccc(F)c4)c(Cl)c3)cc2)CC1`, for which the values for the inhibition of growth at 100 µM in the test on A549 [1] and in the test with PC-3 [2] were 74% and 82.7%, respectively. Also, in the test with A549 [3], the IC50 was found to be 10.8 µM.
